Our source for the IC50 values is US9790169B2, “IDO inhibitors” (BRISTOL-MYERS SQUIBB COMPANY, priority 2015, dated 2017).

A value given as a limit tells only on which side of the number the result lay.

Chain of human IDO1 (P14902 whole entry): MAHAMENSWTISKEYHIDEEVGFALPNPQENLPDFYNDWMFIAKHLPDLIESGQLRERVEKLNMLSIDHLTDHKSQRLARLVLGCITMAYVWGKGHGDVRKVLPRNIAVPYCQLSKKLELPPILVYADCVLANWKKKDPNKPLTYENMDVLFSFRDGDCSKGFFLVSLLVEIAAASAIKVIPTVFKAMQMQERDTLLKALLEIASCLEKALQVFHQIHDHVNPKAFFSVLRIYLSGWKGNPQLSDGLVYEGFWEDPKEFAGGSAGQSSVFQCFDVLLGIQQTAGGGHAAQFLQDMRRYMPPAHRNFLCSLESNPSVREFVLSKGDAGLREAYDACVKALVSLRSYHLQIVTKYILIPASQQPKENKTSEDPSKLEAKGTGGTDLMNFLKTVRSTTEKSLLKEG

The assay addresses human IDO1 (Homo sapiens, UniProt P14902). Put plainly: Assessment of human IDO-1 inhibitory activity in HEK cells (human IDO1/HEK293 cells, kynurenine read-out with Ehrlich reagent, absorbance 490 nm). The format is cell-based. Further details: expressed in transfected cells. The following applies: HEK Human IDO-1 cellular assay. A digest of the protocol: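 Kynurenine output from stably IDO1-transfected HEK293 cells (10,000/well, phenol red-free RPMI, 10% FBS) after 20 h compound exposure at 37 °C. The reaction was stopped with 0.2% TCA and heated 30 min at 50 °C, then the supernatant was mixed with Ehrlich reagent and read at 490 nm. IC50 was set against DMSO and a 500 nM reference standard as 0 and 100% inhibition.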
Broadly, the IC50 is the concentration at which inhibition is half-maximal. Take `CCOc1ncc(Nc2cc(C(CC)CC(=O)O)ccc2N2CCC[C@H]2C(C)(C)O)cn1` (single isomer, unassigned) [Example 823]: the IC50 was < 50 nM.

As for `CCN(c1ccc(C(CC(=O)O)c2ccccc2)cc1Nc1ccc(C#N)cc1)C1CCOCC1` (single isomer, unassigned) [Example 581, 3-(3-((4-cyanophenyl)amino)-4-(ethyl(tetrahydro-2H-pyran-4-yl)amino)phenyl)-3-phenylpropanoic acid], the IC50 is < 5 nM.

Take `CCOc1ccc(NC(=O)Nc2cc(C(COC)CC(=O)O)cc(F)c2N(CC(C)C)C2CCCCC2)cc1` (single isomer, unassigned) [Example 1160, 3-(4-(cyclohexyl(isobutyl)amino)-3-(3-(4-ethoxyphenyl)ureido)-5-fluorophenyl)-4-methoxybutanoic acid]: the 50% inhibitory concentration (IC50) is < 5 nM.

With `COCC(CC(=O)O)c1ccc(N(CC(C)C)C2CCCCC2)c(NC(=O)Nc2ccc(C)cc2)c1` (racemic) [Example 988, (+/−)-3-(4-(Cyclohexyl(isobutyl)amino)-3-(3-(p-tolyl)ureido)phenyl)-4-methoxybutanoic acid], the half-maximal inhibitory concentration (IC50) is < 5 nM.

Turning to `COCC(CC(=O)O)c1cc(F)c(N(CC(C)C)CC(C)C)c(NC(=O)Nc2ccc(C)cc2)c1` (single isomer, unassigned) [Example 1194, 3-(4-(Diisobutylamino)-3-fluoro-5-(3-(p-tolyl)ureido)phenyl)-4-methoxybutanoic acid], the IC50 was < 50 nM.

For the compound `CC[C@@H](CC(=O)O)c1ccc(N(CC)C2CCOCC2)c(Nc2ccn3nc(C)c(F)c3n2)c1` (single isomer, unassigned) [Example 473], the IC50 was > 50 nM.

Regarding `CCOc1ccc(Nc2cc(C(CC)CC(=O)O)cc(F)c2N(CC(C)C)CC(C)C)cc1` (single isomer, unassigned) [Example 97, 3-(4-(diisobutylamino)-3-((4-ethoxyphenyl)amino)-5-fluorophenyl)pentanoic acid], the IC50 is < 50 nM.

For the compound `CCC(CC(=O)O)c1ccc(N(CC(C)C)C2CCCCC2)c(Nc2ccc3c(c2)OC(F)(F)O3)c1` (single isomer, unassigned) [Example 315, 3-(4-(Cyclohexyl(isobutyl)amino)-3-((2,2-difluorobenzo[d][1,3]dioxol-5-yl)amino)phenyl)pentanoic acid], the concentration for half-maximal inhibition (IC50) is > 50 nM.

Regarding `COCC(CC(=O)O)c1ccc(N(CC(C)C)CC(C)C)c(NC(=O)Nc2ccc(C)cc2)c1` (racemic) [Example 992, (+/−)-3-(4-(Diisobutylamino)-3-(3-(p-tolyl)ureido)phenyl)-4-methoxybutanoic acid], the IC50 is < 50 nM.

As for `CC[C@@H](CC(=O)O)c1ccc(N2CCOC[C@@H]2C(C)C)c(Nc2ccc3c(c2)OC(F)(F)O3)c1` (single isomer, unassigned) [Example 81], the IC50 was < 50 nM.

As to `CCOc1ccc(Nc2cc(C(C)CC(=O)O)ccc2N(CC(C)(C)O)C2CCCCC2)c(F)c1` (single isomer, unassigned) [Example 52, 3-(4-(cyclohexyl(2-hydroxy-2-methylpropyl)amino)-3-((4-ethoxy-2-fluorophenyl)amino)phenyl)butanoic acid], the IC50 is > 50 nM.

For `CC[C@H](CC(=O)O)c1ccc(N(CC2CC2)CC(C)(C)O)c(Nc2ccc(F)cc2)c1` (single isomer, unassigned) [Example 273], the IC50 was < 50 nM.

Consider `CCc1ccc(Nc2cc([C@H](CC)CC(=O)O)ccc2N2CCOC[C@@H]2C(C)C)cc1` (single isomer, unassigned) [Example 91], for which the IC50 was < 50 nM.

As for `CCC(CC(=O)O)c1ccc(N2CCOC[C@H]2C(C)C)c(NC(=O)Nc2ccc(Cl)cc2F)c1` (single isomer, unassigned) [Example 896], the IC50 was < 50 nM.

Turning to `CCOc1ccc(NC(=O)Nc2cc(C(CC)CC(=O)O)c(F)cc2N(CC(C)C)C2CCCCC2)c(F)c1` (racemic) [Example 1116, (±)-3-(4-(Cyclohexyl(isobutyl)amino)-5-(3-(4-ethoxy-2-fluorophenyl)ureido)-2-fluorophenyl)pentanoic acid], the IC50 was < 5 nM.

Turning to `CCN(c1ccc(C(C)CC(=O)O)cc1Nc1cnc(OCC2CC2)nc1)C1CCOCC1` (single isomer, unassigned) [Example 614, 3-(3-((2-(cyclopropylmethoxy)pyrimidin-5-yl)amino)-4-(ethyl(tetrahydro-2H-pyran-4-yl)amino)phenyl)butanoic acid], the IC50 was < 50 nM.

For the compound `CCC(CC(=O)O)c1cc(NC(=O)Nc2ccc3c(c2)OCO3)c(N(CC(C)C)CC(C)C)cc1F` (racemic) [Example 1134, (±)-3-(5-(3-(Benzo[d][1,3]dioxol-5-yl)ureido)-4-(diisobutylamino)-2-fluorophenyl)pentanoic acid], the IC50 is < 5 nM.

Regarding `CCN(c1ccc([C@H](COC)CC(=O)O)cc1NC(=O)Nc1ccc(OC(F)F)cc1)C1CCOCC1` (single isomer, unassigned) [Example 436], the IC50 was > 50 nM.

Turning to `CCCN(c1ccc(C(CC)CC(=O)O)cc1NC(=O)Nc1cnc(C)nc1)C1CCOCC1` (racemic) [Example 610, 3-(3-(3-(2-methylpyrimidin-5-yl)ureido)-4-(propyl(tetrahydro-2H-pyran-4-yl)amino)phenyl)pentanoic acid], the IC50 is > 50 nM.

For the compound `CC[C@@H](CC(=O)O)c1ccc(N(CC)C2CCOCC2)c(Nc2ccc3c(c2)OCCO3)c1` (single isomer, unassigned) [Example 486], the IC50 is > 50 nM.

For the compound `CC[C@@H](CC(=O)O)c1ccc(N(CC)C2CCOCC2)c(Nc2ccc(Cl)c(OC)c2)c1` (single isomer, unassigned) [Example 481], the IC50 was < 5 nM.

In the case of `CC[C@@H](CC(=O)O)c1ccc(N2CCOC[C@@H]2C(C)C)c(Nc2ccc(Cl)cc2)c1` (single isomer, unassigned) [Example 78], the IC50 is < 50 nM.

For `COCC(CC(=O)O)c1ccc(N(CC(C)C)C2CCOCC2)c(NC(=O)Nc2ccc(OC)cc2F)c1` (single isomer, unassigned) [Example 1214, 3-(3-(3-(2-Fluoro-4-methoxyphenyl)ureido)-4-(isobutyl(tetrahydro-2H-pyran-4-yl)amino)phenyl)-4-methoxybutanoic acid], the IC50 was > 50 nM.

As to `CC[C@H](CC(=O)O)c1ccc(N2CCOC[C@@H]2C(C)C)c(NC(=O)Nc2cc(C)on2)c1` (single isomer, unassigned) [Example 88], the IC50 was > 50 nM.

`CCC(CC(=O)O)c1cc(NC(=O)Nc2cc(C)no2)c(N(CC(C)C)C2CCCCC2)cc1F` (racemic) [Example 1113, (±)-3-(4-(Cyclohexyl(isobutyl)amino)-2-fluoro-5-(3-(3-methylisoxazol-5-yl)ureido)phenyl)pentanoic acid]: the IC50 is < 5 nM.

Take `CC[C@@H](CC(=O)O)c1ccc(N(CC)C2CCCCC2)c(Nc2ccc(Cl)cc2)c1` (single isomer, unassigned) [Example 279]: the IC50 is < 5 nM.

Turning to `CCN(c1ccc([C@@H](COC)CC(=O)O)cc1Nc1cnc(C)nc1)C1CCOCC1` (single isomer, unassigned) [Example 379], the IC50 was > 50 nM.

Consider `CCC(CC(=O)O)c1ccc(N(CC(C)C)C2CCCCC2)c(NC(=O)C(F)(F)c2ccc(C)cc2)c1` (racemic) [Example 1075, 3-(4-(Cyclohexyl(isobutyl)amino)-3-(2,2-difluoro-2-(p-tolyl)acetamido)phenyl)pentanoic acid], for which the IC50 was > 50 nM.

On to `CCC(CC(=O)O)c1ccc(N(CC)C2CCCOC2)c(Nc2ccc(C#N)cc2)c1` (single isomer, unassigned) [Example 70, 3-(3-((4-cyanophenyl)amino)-4-(ethyl(tetrahydro-2H-pyran-3-yl)amino)phenyl)pentanoic acid], for which the IC50 was < 5 nM.

Consider `CCN(c1ccc(C(C)CC(=O)O)cc1NC(=O)Nc1ccccc1F)C1CCOCC1` (single isomer, unassigned) [Example 640, 3-(4-(ethyl(tetrahydro-2H-pyran-4-yl)amino)-3-(3-(2-fluorophenyl)ureido)phenyl) butanoic acid], for which the IC50 was > 50 nM.

Turning to `CCN(c1ccc(C(C)CC(=O)O)cc1NC(=O)Nc1ccc(C)cc1)C1CCOCC1` (single isomer, unassigned) [Example 639, 3-(4-(ethyl(tetrahydro-2H-pyran-4-yl)amino)-3-(3-(p-tolyl)ureido)phenyl)butanoic acid], the IC50 is < 50 nM.

Consider `CCC(CC(=O)O)c1ccc(N(CC2CC2)C2CCOCC2)c(Nc2ccc3nc(C)sc3c2)c1` (single isomer, unassigned) [Example 701, 3-(4-((Cyclopropylmethyl)(tetrahydro-2H-pyran-4-yl)amino)-3-((2-methylbenzo[d]thiazol-6-yl)amino)phenyl)pentanoic acid], for which the IC50 is < 50 nM.

Consider `CCC(CC(=O)O)c1ccc(N(CC2CC2)C(C)C)c(Nc2ccc3c(c2)OC(F)(F)O3)c1` (single isomer, unassigned) [Example 715, 3-(4-((cyclopropylmethyl) (isopropyl)amino)-3-((2,2-difluorobenzo[d][1,3]dioxol-5-yl)amino)phenyl) pentanoic acid], for which the IC50 is < 50 nM.

For `CCCN(c1ccc([C@@H](CC)CC(=O)O)cc1Nc1ccc(F)cc1)C1CCOCC1` (single isomer, unassigned) [Example 538], the IC50 is < 5 nM.

With `CCc1ccc(Nc2cc(C(CC)CC(=O)O)ccc2N(CC(C)C)C2CCCCC2)cc1` (single isomer, unassigned) [Example 309, 3-(4-(cyclohexyl(isobutyl)amino)-3-((4-ethylphenyl)amino)phenyl)pentanoic acid], the IC50 was < 5 nM.

For the compound `CCN(c1ccc([C@@H](COC)CC(=O)O)cc1Nc1ccc(Cl)cc1)C1CCOCC1` (single isomer, unassigned) [Example 376], the IC50 was < 5 nM.
